Our source for the Kd values is publication PMC12137981 (Acta Pharmaceutica Sinica. B, 2025).

The experiment concerns the target SUMOylation activating enzyme subunit 1 (SAE1) (Homo sapiens, UniProt Q9UBE0). Nature of the experiment: MST with RED-NHS-labeled purified SAE1. The class given is binding.

Chain of SUMOylation activating enzyme subunit 1 (SAE1) (Q9UBE0 whole entry): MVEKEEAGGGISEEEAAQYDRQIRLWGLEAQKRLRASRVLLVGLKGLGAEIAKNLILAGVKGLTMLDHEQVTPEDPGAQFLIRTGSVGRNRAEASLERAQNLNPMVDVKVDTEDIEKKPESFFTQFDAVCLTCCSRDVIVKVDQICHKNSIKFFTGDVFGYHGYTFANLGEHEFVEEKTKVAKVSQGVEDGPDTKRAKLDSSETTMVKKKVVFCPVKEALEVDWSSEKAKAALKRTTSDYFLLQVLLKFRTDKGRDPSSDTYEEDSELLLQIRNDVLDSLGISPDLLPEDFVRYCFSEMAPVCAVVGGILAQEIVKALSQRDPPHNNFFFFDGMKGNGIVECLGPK

`COc1cc2c(c(OC)c1OC)-c1ccc(OC)c(=O)cc1[C@@H](NC(C)=O)CC2` [COL, colchicine]: the Kd came to 2560 nM.

Broadly, the Kd is the free concentration of one partner at which half of the binding sites on the other are occupied at equilibrium, for simple one-to-one binding. The low end stands for tighter binding, the high end for weaker binding.
